Results on 5 compounds are retold here after patent US20230340020A1, “PEPTIDE LIGANDS FOR BINDING TO MT1-MMP” (priority 2016, published 2023).

One data set concerns MT1-MMP. In words: Species cross-reactivity with MT1-MMP. Type of data set: binding. As to conditions: murine, dog, cynomolgus and human MT1-MMP.
A further data set addresses T1, MT1-MMP hemopexin domain (Homo sapiens, UniProt P50281).
T1 construct: residues Cys319-Gly511 from the human gene; His6 (N); made in house; host or cells: HEK293 (transient, pEXPR-IBA42 vector)
The data set is described as follows: Fluorescence polarisation competition binding to MT1-MMP hemopexin domain. As to conditions: read-out: Binding Affinity Ki(h). The text has this:
The MT1-MMP hemopexin-like repeats (also known as the MT1-MMP hemopexin domain), residues Cys319-Gly511 from the human gene, were transiently expressed in HEK293 cells as secreted N-terminally His6-tagged soluble protein, using the pEXPR-IBA42 (IBA) expression vector. Following expression, the protein was purified by Nickel-NTA affinity chromatography followed by gel filtration, and purity was checked by SDS-PAGE. Batch to batch variability was also monitored by fluorescence thermal shift experiments in the presence/absence of a hemopexin domain binding bicycle.
Binding affinity was measured using competition assays using Fluorescence Polarisation (anisotropy). […]
Here, a pre-formed complex of PEX with the fluorescent PEX-binding tracer is titrated with free, non-fluoresceinated bicyclic peptide. […] Dissociation of the complex can be measured quantitatively, and the Kd of the competitor (titrant) to the target protein determined. The advantage of the competition method is that the affinities of non-fluoresceinated bicyclic peptides can be determined accurately and rapidly.
Subsequently, the non-fluorescent competitor bicyclic peptide (usually just the bicycle core sequence) is titrated, such that it displaces the fluorescent tracer from the target protein. The displacement of the tracer is measured and associated with a drop in fluorescence polarisation. […]
(Polarisation of emitted light reports the rotation of a fluorescent probe.)

Data set [1] in a line: Plasma stability in mouse serum. The data set is classed as in vitro ADME. The note with it: 4 μM concentration. The text has this: (§1) The stability appears to be slightly greater than that of the corresponding conjugates in which the peptide is linked to the scaffold by three thioether linkages.
Data set [2] in a line: Plasma stability in human serum. The note with it: 4 μm concentration. The data set is classed as in vitro ADME.
Excerpt: as §1

Data set [3] can be described thus: Tolerability in HT1080 tumor-bearing mice. As to conditions: mouse, in vivo; biw dosing, up to 14 days, BALB/c nude mice; read-out: tolerated dose. Here is the method: BALB/c nude mice were inoculated subcutaneously at the right flank with HT1080 tumor cells […] in 0.2 ml of PBS for tumor development. 39 animals were randomized when the average tumor volume reached […].
The BDC compounds were formulated at 0.03 mg/ml in a vehicle buffer containing 25 mM histidine and 10% Sucrose. The formulations were administered twice weekly (biw) at 0.3, 1, 3 and 10 mg/kg. Tumor volume and body weight were measured up to 14 days from the first dosing.

Starred links: 1 amine or outer side, 2 acyl side, 3 side chain; linkers in the order of their positions; H or OH if unused. Positions of bridges follow the written chain, without caps; N, C: chain ends. Non-standard residues stand in square brackets, D forms with d. Residues, ends and D or L forms follow the SMILES beside them. 1Nal = N[C@@H](Cc1cccc2ccccc12)C(=O)O; TBMB = c1c(C[*:1])cc(C[*:3])cc1C[*:2]; Tle = CC(C)(C)[C@H](N)C(=O)O; βAla = NCCC(=O)O; Sar = CNCC(=O)O

With “17-69-07-N268: stabilised derivative of 17-69-07; Dap homologues have SEQ ID 17 (ACANEAACEDFYDGC; non-natural residues D-Ala, 1Nal, tBuGly, Dap; bicycle; VARIANT 2 /replace="Dap" or "N-AlkDap" or "N-HAlkDap"; MOD_RES 3 D-amino acid; MOD_RES 6 Fmoc-L-1-Naphthylalanine; MOD_RES 7 D-amino acid; VARIANT 8 /replace="Dap" or "N-AlkDap" or "N-HAlkDap"; MOD_RES 14 Fmoc-alpha-tert-butylglycine; VARIANT 15 /replace="Dap" or "N-AlkDap" or "N-HAlkDap"; MISC_FEATURE - /note="Variant residues given in the sequence have nopreference with respect to those in the a)”, the “cross-reactivity with MT1-MMP of other species” value in the data set with MT1-MMP is recorded as “fully cross reactive”.

As for `C[C@H](NC(=O)CN(C)C(=O)CN(C)C(=O)CN(C)C(=O)CN(C)C(=O)CN(C)C(=O)CN(C)C(=O)CN(C)C(=O)CN(C)C(=O)CN(C)C(=O)CN(C)C(=O)CCN)C(=O)N[C@H]1CSCc2cc3cc(c2)CSC[C@H](NC(=O)[C@@H](C)NC(=O)[C@H](Cc2cccc4ccccc24)NC(=O)[C@H](CCC(=O)O)NC(=O)[C@H](CC(N)=O)NC(=O)[C@@H](C)NC1=O)C(=O)N[C@@H](CCC(=O)O)C(=O)N[C@@H](CC(=O)O)C(=O)N[C@@H](Cc1ccccc1)C(=O)N[C@@H](Cc1ccc(O)cc1)C(=O)N[C@@H](CC(=O)O)C(=O)N[C@@H](C(C)(C)C)C(=O)N[C@H](C(N)=O)CSC3` [17-69-07-N241, H-(β-Ala)-Sar10-Ala-Cys-(D-Ala)-Asn-Glu-(1Nal)-(D-Ala)-Cys-Glu-Asp-Phe-Tyr-Asp-(tBuGly)-Cys-NH2] (H-[βAla][Sar][Sar][Sar][Sar][Sar][Sar][Sar][Sar][Sar][Sar]AC[dA]NE[1Nal][dA]CEDFYD[Tle]C-NH2; linker 13-19-26 via TBMB), in the data set with MT1-MMP, the “cross-reactivity with MT1-MMP of other species” value is given as “fully cross reactive”.

The Ki is the equilibrium dissociation constant of an inhibitor or competing ligand from its target. For `CC(=O)N[C@@H](C)C(=O)N[C@H]1CN(C)Cc2cc3cc(c2)CN(C)C[C@@H](C(N)=O)NC(=O)[C@H](C(C)(C)C)NC(=O)[C@H](CC(=O)O)NC(=O)[C@H](Cc2ccc(O)cc2)NC(=O)[C@H](Cc2ccccc2)NC(=O)[C@H](CC(=O)O)NC(=O)[C@H](CCC(=O)O)NC(=O)[C@H](CSC3)NC(=O)[C@@H](C)NC(=O)[C@H](Cc2cccc3ccccc23)NC(=O)[C@H](CCC(=O)O)NC(=O)[C@H](CC(N)=O)NC(=O)[C@@H](C)NC1=O` [17-69-07-N479, Ac-A(Dap(Me))(D-Ala)NE(1Nal)(D-Ala)CEDFYD(tBuGly)(Dap(Me))], the Ki on MT1-MMP hemopexin domain turned out to be 15.6 nM.

As for `CC[C@H](C)[C@@H]([C@@H](CC(=O)N1CCC[C@H]1[C@H](OC)[C@@H](C)C(=O)N[C@H](C)[C@@H](O)c1ccccc1)OC)N(C)C(=O)[C@@H](NC(=O)[C@H](C(C)C)N(C)C(=O)OCc1ccc(NC(=O)[C@H](CCCNC(N)=O)NC(=O)[C@@H](NC(=O)Cn2cc(CCC(=O)NCCC(=O)N(C)CC(=O)N(C)CC(=O)N(C)CC(=O)N(C)CC(=O)N(C)CC(=O)N(C)CC(=O)N(C)CC(=O)N(C)CC(=O)N(C)CC(=O)N(C)CC(=O)N[C@@H](C)C(=O)N[C@H]3CNCc4cc5cc(c4)CSC[C@H](NC(=O)[C@@H](C)NC(=O)[C@H](Cc4cccc6ccccc46)NC(=O)[C@H](CCC(=O)O)NC(=O)[C@H](CC(N)=O)NC(=O)[C@@H](C)NC3=O)C(=O)N[C@@H](CCC(=O)O)C(=O)N[C@@H](CC(=O)O)C(=O)N[C@@H](Cc3ccccc3)C(=O)N[C@@H](Cc3ccc(O)cc3)C(=O)N[C@@H](CC(=O)O)C(=O)N[C@@H](C(C)(C)C)C(=O)N[C@H](C(N)=O)CNC5)nn2)C(C)C)cc1)C(C)C` [BT17BDC-53], the “T1/2 in mouse serum” value in data set [1] is reported as “greater than 50 hours”. Moreover, in data set [2], the “T1/2 in human serum” value is listed as “greater than 50 hours”.

`CC[C@H](C)[C@@H]([C@@H](CC(=O)N1CCC[C@H]1[C@H](OC)[C@@H](C)C(=O)N[C@H](C)[C@@H](O)c1ccccc1)OC)N(C)C(=O)[C@@H](NC(=O)[C@H](C(C)C)N(C)C(=O)OCc1ccc(NC(=O)[C@H](CCCNC(N)=O)NC(=O)[C@@H](NC(=O)Cn2cc(CCC(=O)N[C@@H](C)C(=O)N[C@H]3CN(C)Cc4cc5cc(c4)CN(C)C[C@@H](C(N)=O)NC(=O)[C@H](C(C)(C)C)NC(=O)[C@H](CC(=O)O)NC(=O)[C@H](Cc4ccc(O)cc4)NC(=O)[C@H](Cc4ccccc4)NC(=O)[C@H](CC(=O)O)NC(=O)[C@H](CCC(=O)O)NC(=O)[C@H](CSC5)NC(=O)[C@@H](C)NC(=O)[C@H](Cc4cccc5ccccc45)NC(=O)[C@H](CCC(=O)O)NC(=O)[C@H](CC(N)=O)NC(=O)[C@@H](C)NC3=O)nn2)C(C)C)cc1)C(C)C` [BT17BDC-62]: in data set [3], the MTD is roughly 5 mg/kg.
